Laboratory results published in publication PMC7518156 (PeerJ, 2020).
“Also recorded” adds a separate entry of the source. Read-outs that look alike come from different tables or passages of the source.

Assay: Pharmacokinetics of ERL and GEF in Wistar rats after four weeks consumption of water or flavoured water (plasma, UPLC-MS/MS, non-compartmental analysis)
Type: in vivo
Conditions: for concentration at 0 h / concentration at 0.5 h / concentration at 1 h / concentration at 2 h / concentration at 3 h / concentration at 5 h / concentration at 24 h / concentration at 48 h / AUC(0-inf) / CL/F / Cmax / Tmax / AUC(0-t) / half-life / AUC: male, Wistar, rat, plasma, 20 mg/kg; for Tmax: read-out: tmax; for AUC(0-t): read-out: AUC0-48; for half-life: read-out: t½ (converted)
Protocol: Fifty healthy male Wistar rats weighing 250 ± 30 g were obtained from the animal house, College of Pharmacy, King Saud University, Riyadh, Saudi Arabia. Rats were randomly divided into ten cages (n = 5). All individualized ventilated cages (IVC) type IV used in this study were of 20″L × 11″W × 9″ in dimension capable of hosting 4–5 rats. Cages density, bedding, and sanitation frequency was similar in all cages. Cages were housed at room temperature (25 °C) and at an average relative humidity of 50%. Daily observation of all rats was required to ensure that all animals maintained good health. All animal experiments strictly followed the guidelines of the Ethical Committee for Performing Studies on Animals, King Saud University, Riyadh, Saudi Arabia, protocol number KSU-SE-19-13.
Four types of FW, (Aquafina®, a product of Pepsi-Cola®, Saudi Industrial Projects Company, Jeddah, Saudi Arabia) with different flavours, specifically berry (group II), peach (group III), lime (group IV), and pineapple FW (group V) were used. Other components found in FW used in this study include water, preservatives (sodium phosphate, potassium sorbet, sodium benzoate), acidifiers (citric acid, maleic acid), sweeteners (aspartame, potassium acesulfame, allose), acidity regulator (sodium citrate), and antioxidant agent (calcium disodium EDTA). […] The parallel design was used in this study to avoid animals’ physiological changes that could occur in the cross-over design, possibly affecting PK profiles of drug substances. All animals involved in the study were deprived from food, but not water/FW, for at least 12 h before drug administration. […] Drugs were administered to the rats between 7:00 am and 8:00 am. Rats were separately weighed from day one of water/FW consumption prior to drug administration for accurate dose calculation (Fig. S1). Blood samples (0.3 mL) were collected from each rat immediately prior to dosing (0 time) and at predetermined time points (0.5, 1, 2, 3, 5, 24, and 48 h) post drug administration. Blood samples were withdrawn and processed as described previously ([Maher et al., 2017]; [Maher, Alzoman & Shehata, 2016]; [Maher, Alzoman & Shehata, 2018]). Specifically, blood samples were withdrawn from the retro-orbital sinus into a series of heparinized tubes. Plasma was separated from collected blood samples by centrifugation at 4,500 rpm for 30 min where the centrifuge was maintained at 4 °C, and then stored at −20 °C until the day of analysis. […] A mixture of acetonitrile: water (80: 20, v/v), with 0.1% formic acid was used as a mobile phase at a flow rate of 0.2 mL/min ([Maher, Alzoman & Shehata, 2016]).
Cmax and tmax were obtained from the corresponding plasma concentration–time curve (Figs. 1A and 1B). […] The area under the plasma concentration–time curve from time 0 to the last sampling time t, 48 h (AUC0–t) was calculated using the trapezoidal rule. […] AUC0–∞ was also derived by summing up AUC0–t andthe area obtained by extrapolation from time t to ∞. The latter area was calculated from the division of the last measured concentration (Clast) by λz.
Results were presented as mean ± SD. PK parameters of all treated groups following the consumption of FW were compared with control (rats having free access to water), using one-way ANOVA and Bonferroni’s multiple comparisons test. Statistical significance was obtained with p-values ≤ 0.05.

[1] = oral, PKSolver sheet, dose 20 mg/kg, +Berry, read-out: Conc
[2] = oral, PKSolver sheet, dose 20 mg/kg, +Lime, read-out: Conc
[3] = oral, PKSolver sheet, dose 20 mg/kg, +Peach, read-out: Conc
[4] = oral, PKSolver sheet, dose 20 mg/kg, +Pineapple, read-out: Conc
[5] = oral, PKSolver sheet, dose 20 mg/kg, drug alone (water), read-out: Conc
[6] = po, rats, 20 mg/kg oral, +Berry FW, average, read-out: Conc*10 (ng/mL plasma)
[7] = po, rats, 20 mg/kg oral, +Lime FW, average, read-out: Conc*10 (ng/mL plasma)
[8] = po, rats, 20 mg/kg oral, +Peach FW, average, read-out: Conc*10 (ng/mL plasma)
[9] = po, rats, 20 mg/kg oral, +Pineapple FW, average, read-out: Conc*10 (ng/mL plasma)
[10] = po, rats, 20 mg/kg oral, drug alone (water), average, read-out: Conc*10 (ng/mL plasma)
[11] = po, rats, 20 mg/kg oral, four weeks berry FW, n = 5, mean (SD)
[12] = po, rats, 20 mg/kg oral, four weeks peach FW, n = 5, mean (SD)
[13] = po, rats, 20 mg/kg oral, four weeks pineapple FW, n = 5, mean (SD)
[14] = po, rats, 20 mg/kg oral, water (control), n = 5, mean (SD)
[15] = po, raw data sheet, from average profile, +Berry FW
[16] = po, raw data sheet, from average profile, +Lime FW
[17] = po, raw data sheet, from average profile, +Peach FW
[18] = po, raw data sheet, from average profile, +Pineapple FW
[19] = po, raw data sheet, from average profile, drug alone (water)
[20] = rats, berry FW relative to control (water)
[21] = rats, lime FW relative to control (water)
[22] = rats, peach FW relative to control (water)
[23] = rats, pineapple FW relative to control (water)
[24] = raw data sheet, +Berry FW vs drug alone
[25] = raw data sheet, +Lime FW vs drug alone
[26] = raw data sheet, +Peach FW vs drug alone
[27] = raw data sheet, +Pineapple FW vs drug alone

concentration at 0 h [1]: 6.83 ng/mL
concentration at 0.5 h [1]: 46.3 ng/mL
concentration at 1 h [1]: 76.7 ng/mL
concentration at 2 h [1]: 92.4 ng/mL
concentration at 3 h [1]: 110 ng/mL
concentration at 5 h [1]: 45.6 ng/mL
concentration at 24 h [1]: 11.9 ng/mL
concentration at 48 h [1]: 8.18 ng/mL
concentration at 0 h [2]: 19.8 ng/mL
concentration at 0.5 h [2]: 164 ng/mL
concentration at 1 h [2]: 103 ng/mL
concentration at 2 h [2]: 73.3 ng/mL
concentration at 3 h [2]: 57.6 ng/mL
concentration at 5 h [2]: 42.2 ng/mL
concentration at 24 h [2]: 32.1 ng/mL
concentration at 48 h [2]: 25.1 ng/mL
concentration at 0 h [3]: 5.49 ng/mL
concentration at 0.5 h [3]: 67.8 ng/mL
concentration at 1 h [3]: 81.7 ng/mL
concentration at 2 h [3]: 111 ng/mL
concentration at 3 h [3]: 43.2 ng/mL
concentration at 5 h [3]: 18.2 ng/mL
concentration at 24 h [3]: 11.4 ng/mL
concentration at 48 h [3]: 9.85 ng/mL
concentration at 0 h [4]: 10.6 ng/mL
concentration at 0.5 h [4]: 22.3 ng/mL
concentration at 1 h [4]: 36.6 ng/mL
concentration at 2 h [4]: 120 ng/mL
concentration at 3 h [4]: 45.3 ng/mL
concentration at 5 h [4]: 20.9 ng/mL
concentration at 24 h [4]: 15.8 ng/mL
concentration at 48 h [4]: 14 ng/mL
concentration at 0 h [5]: 9.48 ng/mL
concentration at 0.5 h [5]: 44.5 ng/mL
concentration at 1 h [5]: 105 ng/mL
concentration at 2 h [5]: 48.2 ng/mL
concentration at 3 h [5]: 29.7 ng/mL
concentration at 5 h [5]: 23.2 ng/mL
concentration at 24 h [5]: 12.3 ng/mL
concentration at 48 h [5]: 9.77 ng/mL
concentration at 0 h [6]: 6.83 ng/mL
concentration at 0.5 h [6]: 46.3 ng/mL
concentration at 1 h [6]: 76.7 ng/mL
concentration at 2 h [6]: 92.4 ng/mL
concentration at 3 h [6]: 110 ng/mL
concentration at 5 h [6]: 45.6 ng/mL
concentration at 24 h [6]: 11.9 ng/mL
concentration at 48 h [6]: 8.18 ng/mL
concentration at 0 h [7]: 19.8 ng/mL
concentration at 0.5 h [7]: 164 ng/mL
concentration at 1 h [7]: 103 ng/mL
concentration at 2 h [7]: 73.3 ng/mL
concentration at 3 h [7]: 57.6 ng/mL
concentration at 5 h [7]: 42.2 ng/mL
concentration at 24 h [7]: 32.1 ng/mL
concentration at 48 h [7]: 25.1 ng/mL
concentration at 0 h [8]: 5.49 ng/mL
concentration at 0.5 h [8]: 67.8 ng/mL
concentration at 1 h [8]: 81.7 ng/mL
concentration at 2 h [8]: 111 ng/mL
concentration at 3 h [8]: 43.2 ng/mL
concentration at 5 h [8]: 18.2 ng/mL
concentration at 24 h [8]: 11.4 ng/mL
concentration at 48 h [8]: 9.85 ng/mL
concentration at 0 h [9]: 10.6 ng/mL
concentration at 0.5 h [9]: 22.3 ng/mL
concentration at 1 h [9]: 36.6 ng/mL
concentration at 2 h [9]: 120 ng/mL
concentration at 3 h [9]: 45.3 ng/mL
concentration at 5 h [9]: 20.9 ng/mL
concentration at 24 h [9]: 15.8 ng/mL
concentration at 48 h [9]: 14 ng/mL
concentration at 0 h [10]: 9.48 ng/mL
concentration at 0.5 h [10]: 44.5 ng/mL
concentration at 1 h [10]: 105 ng/mL
concentration at 2 h [10]: 48.2 ng/mL
concentration at 3 h [10]: 29.7 ng/mL
concentration at 5 h [10]: 23.2 ng/mL
concentration at 24 h [10]: 12.3 ng/mL
concentration at 48 h [10]: 9.77 ng/mL
AUC(0-inf) [11]: 1380 ng·h/mL
CL/F [11]: 241 mL/min/kg
Cmax [11]: 111 ng/mL
Tmax (po, rats, 20 mg/kg oral, four weeks lime FW, n = 5, mean (SD)): 0.51 h
AUC(0-inf) [12]: 1530 ng·h/mL
CL/F [12]: 219 mL/min/kg
AUC(0-t) [12]: 827 ng·h/mL
Cmax [13]: 120 ng/mL
AUC(0-t) [13]: 942 ng·h/mL
AUC(0-inf) [14]: 1320 ng·h/mL
CL/F [14]: 253 mL/min/kg
Cmax [14]: 106 ng/mL
AUC(0-t) [14]: 827 ng·h/mL
Tmax [14]: 1.02 h
half-life [14]: 35.1 h
AUC [15]: 1330 ng·h/mL
Cmax [15]: 110 ng/mL
Tmax [15]: 3 h
half-life [15]: 13.3 h
AUC [16]: 3340 ng·h/mL
Cmax [16]: 164 ng/mL
Tmax [16]: 0.5 h
half-life [16]: 43.6 h
AUC [17]: 1210 ng·h/mL
Cmax [17]: 111 ng/mL
Tmax [17]: 2 h
half-life [17]: 27 h
AUC [18]: 1670 ng·h/mL
Cmax [18]: 120 ng/mL
Tmax [18]: 2 h
half-life [18]: 35.6 h
AUC [19]: 1240 ng·h/mL
Cmax [19]: 105 ng/mL
Tmax [19]: 1 h
half-life [19]: 29.4 h
decrease in t1/2 [20]: ~49%
effect on exposure (AUC0–48) [20]: significantly affected
increase in AUC0–48 [20]: 42.35%
increase in tmax [20]: three times increase
decrease in apparent oral clearance (CL/F) [21]: 65%
decrease in tmax [21]: not statistically significant
increase in AUC0–∞ [21]: 200%
increase in Cmax [21]: 95%
increase in t1/2 [21]: ~65%
effect on Cmax, AUC0–48, AUC0–∞, and CL/F [22]: no significant effect
increase in t1/2 [22]: about 41%
increase in tmax [22]: two times increase
increase in AUC0–∞ [23]: 86%
increase in t1/2 [23]: ~113.8%
increase in tmax [23]: two times increase
% change FOR AREA [24]: 7% FOR AREA
% change FOR C MAX [24]: 5% FOR C MAX
% change FOR AREA [25]: 170% FOR AREA
% change FOR C MAX [25]: 56% FOR C MAX
% change FOR AREA [26]: -2% FOR AREA
% change FOR C MAX [26]: 6% FOR C MAX
% change FOR AREA [27]: 35% FOR AREA
% change FOR C MAX [27]: 13% FOR C MAX
SMILES: C#Cc1cccc(Nc2ncnc3cc(OCCOC)c(OCCOC)cc23)c1 [ERL, Erlotinib]
effect on PK parameters (overall) [22]: minimum effect; also recorded: least effect; also recorded: nearly negligible effect
